# Source: ChEMBL document CHEMBL4138123, “Design, synthesis and biological evaluation of novel pyrazolochalcones as potential modulators of PI3K/Akt/mTOR pathway and inducers of apoptosis in breast cancer cells” (Eur J Med Chem, 2017)
# Tests used:
# Format in all cases: functional
# NCI-H23 = assay: Cytotoxicity against human NCI-H23 cells assessed as growth inhibition after 48 hrs by sulforhodamine B assay; details: NCI-H23, 48 h; for CC50: read-out: LC50 (the source's name)
# PC-3 = assay: Cytotoxicity against human PC3 cells assessed as growth inhibition after 48 hrs by sulforhodamine B assay; details: PC-3, 48 h
# MOLT-4 [1] = assay: Cytotoxicity against human MOLT4 cells assessed as growth inhibition after 48 hrs by sulforhodamine B assay; details: MOLT-4, 48 h; for CC50: read-out: LC50 (the source's name)
# RPMI-8226 = assay: Cytotoxicity against human RPMI8226 cells assessed as growth inhibition after 48 hrs by sulforhodamine B assay; details: RPMI-8226, 48 h
# OVCAR-5 = assay: Cytotoxicity against human OVCAR5 cells assessed as cell growth at 0.1 uM after 48 hrs by sulforhodamine B assay relative to control; details: OVCAR-5, 48 h, read-out: Activity
# 786-0 [2] = assay: Cytotoxicity against human 786-0 cells assessed as cell growth at 0.01 uM after 48 hrs by sulforhodamine B assay relative to control; details: 786-0, 48 h, read-out: Activity
# SK-MEL-28 [3] = assay: Cytotoxicity against human SK-MEL-28 cells assessed as cell growth at 100 uM after 48 hrs by sulforhodamine B assay relative to control; details: SK-MEL-28, 48 h, read-out: Activity
# U-251 = assay: Cytotoxicity against human U251 cells assessed as cell growth at 0.01 uM after 48 hrs by sulforhodamine B assay relative to control; details: U-251, 48 h, read-out: Activity
# NCI/ADR-RES = assay: Cytotoxicity against human NCI/ADR-RES cells assessed as cell growth at 10 uM after 48 hrs by sulforhodamine B assay relative to control; details: read-out: Activity
# 786-0 [4] = assay: Cytotoxicity against human 786-0 cells assessed as cell growth at 1 uM after 48 hrs by sulforhodamine B assay relative to control; details: 786-0, 48 h, read-out: Activity
# K562 = assay: Cytotoxicity against human K562 cells assessed as cell growth at 1 uM after 48 hrs by sulforhodamine B assay relative to control; details: K562, 48 h, read-out: Activity
# A498 = assay: Cytotoxicity against human A498 cells assessed as cell growth at 1 uM after 48 hrs by sulforhodamine B assay relative to control; details: A498, 48 h, read-out: Activity
# MOLT-4 [5] = assay: Cytotoxicity against human MOLT4 cells assessed as cell growth at 10 uM after 48 hrs by sulforhodamine B assay relative to control; details: MOLT-4, 48 h, read-out: Activity
# HT-29 = assay: Cytotoxicity against human HT-29 cells assessed as cell growth at 100 uM after 48 hrs by sulforhodamine B assay relative to control; details: HT-29, 48 h, read-out: Activity
# ACHN = assay: Cytotoxicity against human ACHN cells assessed as cell growth at 0.01 uM after 48 hrs by sulforhodamine B assay relative to control; details: read-out: Activity
# OVCAR-8 = assay: Cytotoxicity against human OVCAR8 cells assessed as cell growth at 0.01 uM after 48 hrs by sulforhodamine B assay relative to control; details: OVCAR-8, 48 h, read-out: Activity
# MDA-MB-435 = assay: Cytotoxicity against human MDA-MB-435 cells assessed as cell growth at 0.1 uM after 48 hrs by sulforhodamine B assay relative to control; details: MDA-MB-435, 48 h, read-out: Activity
# 786-0 [6] = assay: Cytotoxicity against human 786-0 cells assessed as cell growth at 0.1 uM after 48 hrs by sulforhodamine B assay relative to control; details: 786-0, 48 h, read-out: Activity
# UO-31 = assay: Cytotoxicity against human UO31 cells assessed as cell growth at 0.1 uM after 48 hrs by sulforhodamine B assay relative to control; details: UO-31, 48 h, read-out: Activity
# IGROV-1 [7] = assay: Cytotoxicity against human IGROV1 cells assessed as cell growth at 10 uM after 48 hrs by sulforhodamine B assay relative to control; details: IGROV-1, 48 h, read-out: Activity
# HCT-15 [8] = assay: Cytotoxicity against human HCT15 cells assessed as cell growth at 1 uM after 48 hrs by sulforhodamine B assay relative to control; details: HCT-15, 48 h, read-out: Activity
# MDA-MB-231 = assay: Cytotoxicity against human MDA-MB-231 cells assessed as cell growth at 0.1 uM after 48 hrs by sulforhodamine B assay relative to control; details: MDA-MB-231, 48 h, read-out: Activity
# UACC-62 = assay: Cytotoxicity against human UACC62 cells assessed as cell growth at 1 uM after 48 hrs by sulforhodamine B assay relative to control; details: UACC-62, 48 h, read-out: Activity
# SK-MEL-28 [9] = assay: Cytotoxicity against human SK-MEL-28 cells assessed as cell growth at 0.01 uM after 48 hrs by sulforhodamine B assay relative to control; details: SK-MEL-28, 48 h, read-out: Activity
# HCC 2998 [10] = assay: Cytotoxicity against human HCC2998 cells assessed as cell growth at 1 uM after 48 hrs by sulforhodamine B assay relative to control; details: HCC 2998, 48 h, read-out: Activity
# HCT-15 [11] = assay: Cytotoxicity against human HCT15 cells assessed as cell growth at 0.1 uM after 48 hrs by sulforhodamine B assay relative to control; details: HCT-15, 48 h, read-out: Activity
# IGROV-1 [12] = assay: Cytotoxicity against human IGROV1 cells assessed as cell growth at 0.01 uM after 48 hrs by sulforhodamine B assay relative to control; details: IGROV-1, 48 h, read-out: Activity
# OVCAR-4 = assay: Cytotoxicity against human OVCAR4 cells assessed as cell growth at 10 uM after 48 hrs by sulforhodamine B assay relative to control; details: OVCAR-4, 48 h, read-out: Activity
# SK-OV-3 = assay: Cytotoxicity against human SKOV3 cells assessed as cell growth at 0.1 uM after 48 hrs by sulforhodamine B assay relative to control; details: SK-OV-3, 48 h, read-out: Activity
# RXF 393 [13] = assay: Cytotoxicity against human RXF393 cells assessed as cell growth at 1 uM after 48 hrs by sulforhodamine B assay relative to control; details: RXF 393, 48 h, read-out: Activity
# HCC 2998 [14] = assay: Cytotoxicity against human HCC2998 cells assessed as cell growth at 100 uM after 48 hrs by sulforhodamine B assay relative to control; details: HCC 2998, 48 h, read-out: Activity
# TK-10 = assay: Cytotoxicity against human TK10 cells assessed as cell growth at 10 uM after 48 hrs by sulforhodamine B assay relative to control; details: TK-10, 48 h, read-out: Activity
# RXF 393 [15] = assay: Cytotoxicity against human RXF393 cells assessed as cell growth at 0.1 uM after 48 hrs by sulforhodamine B assay relative to control; details: RXF 393, 48 h, read-out: Activity
# BT-549 = assay: Cytotoxicity against human BT549 cells assessed as cell growth at 100 uM after 48 hrs by sulforhodamine B assay relative to control; details: BT-549, 48 h, read-out: Activity
# SNB-19 = assay: Cytotoxicity against human SNB19 cells assessed as cell growth at 1 uM after 48 hrs by sulforhodamine B assay relative to control; details: SNB-19, 48 h, read-out: Activity
# HCT-15 [16] = assay: Cytotoxicity against human HCT15 cells assessed as cell growth at 100 uM after 48 hrs by sulforhodamine B assay relative to control; details: HCT-15, 48 h, read-out: Activity
smiles,measurement,setting,value
COc1ccc(-c2cc(/C=C/C(=O)c3ccc4c(c3)OCO4)[nH]n2)cc1OC,GI50,NCI-H23,2.25 µM
same,GI50,PC-3,1.98 µM
same,GI50,MOLT-4 [1],2.2 µM
same,GI50,RPMI-8226,0.37 µM
COc1cc(-c2cc(/C=C/C(=O)c3ccc(Cl)c(Cl)c3)[nH]n2)cc(OC)c1OC,growth at 0.1 µM,OVCAR-5,99%
same,growth at 0.01 µM,786-0 [2],95%
same,growth at 100 µM,SK-MEL-28 [3],-16%
same,growth at 0.01 µM,U-251,97%
same,growth at 10 µM,NCI/ADR-RES,51%
same,growth at 1 µM,786-0 [4],91%
same,growth at 1 µM,K562,101%
same,growth at 1 µM,A498,73%
same,growth at 10 µM,MOLT-4 [5],24%
same,growth at 100 µM,HT-29,3%
same,growth at 0.01 µM,ACHN,107%
same,growth at 0.01 µM,OVCAR-8,94%
same,growth at 0.1 µM,MDA-MB-435,96%
same,growth at 0.1 µM,786-0 [6],94%
same,TGI,NCI-H23,> 100 µM
same,CC50,NCI-H23,> 100 µM
same,growth at 0.1 µM,UO-31,85%
same,growth at 10 µM,IGROV-1 [7],75%
same,growth at 1 µM,HCT-15 [8],86%
same,growth at 0.1 µM,MDA-MB-231,102%
same,growth at 1 µM,UACC-62,96%
same,growth at 0.01 µM,SK-MEL-28 [9],108%
same,growth at 1 µM,HCC 2998 [10],102%
same,LC50,PC-3,> 100 µM
same,TGI,PC-3,> 100 µM
same,growth at 0.1 µM,HCT-15 [11],94%
same,growth at 0.01 µM,IGROV-1 [12],97%
same,growth at 10 µM,OVCAR-4,52%
same,growth at 0.1 µM,SK-OV-3,104%
same,TGI,MOLT-4 [1],40.6 µM
same,CC50,MOLT-4 [1],> 100 µM
same,growth at 1 µM,RXF 393 [13],81%
same,growth at 100 µM,HCC 2998 [14],-50%
same,growth at 10 µM,TK-10,46%
same,LC50,RPMI-8226,> 100 µM
same,TGI,RPMI-8226,6.73 µM
same,growth at 0.1 µM,RXF 393 [15],96%
same,growth at 100 µM,BT-549,-53%
same,growth at 1 µM,SNB-19,90%
COc1ccc(C(=O)/C=C/c2cc(-c3ccc4c(c3)OCO4)n[nH]2)cc1OC,growth at 0.1 µM,OVCAR-5,95%
same,growth at 100 µM,HCT-15 [16],2%
same,growth at 0.01 µM,786-0 [2],96%
same,growth at 100 µM,SK-MEL-28 [3],-89%
same,growth at 0.01 µM,U-251,90%
same,growth at 1 µM,786-0 [4],94%
same,growth at 1 µM,K562,80%
same,growth at 1 µM,A498,72%
same,growth at 100 µM,HT-29,-44%
same,growth at 0.01 µM,ACHN,101%
same,growth at 0.01 µM,OVCAR-8,99%
same,growth at 0.1 µM,MDA-MB-435,99%
same,growth at 0.1 µM,786-0 [6],95%
same,TGI,NCI-H23,19.6 µM
same,CC50,NCI-H23,66 µM
same,growth at 0.1 µM,UO-31,81%
same,growth at 10 µM,IGROV-1 [7],-4%
same,growth at 1 µM,HCT-15 [8],86%
same,growth at 0.1 µM,MDA-MB-231,96%
same,growth at 1 µM,UACC-62,98%
same,growth at 0.01 µM,SK-MEL-28 [9],99%
same,growth at 1 µM,HCC 2998 [10],104%
same,GI50,PC-3,2.58 µM
same,LC50,PC-3,> 100 µM
same,TGI,PC-3,18.2 µM
same,growth at 0.1 µM,HCT-15 [11],95%
same,growth at 0.01 µM,IGROV-1 [12],100%
same,growth at 10 µM,OVCAR-4,18%
same,growth at 0.1 µM,SK-OV-3,99%
same,TGI,MOLT-4 [1],10.3 µM
same,CC50,MOLT-4 [1],> 100 µM
same,growth at 1 µM,RXF 393 [13],105%
same,growth at 100 µM,HCC 2998 [14],-86%
same,growth at 10 µM,TK-10,-5%
same,LC50,RPMI-8226,> 100 µM
same,TGI,RPMI-8226,5.24 µM
same,growth at 0.1 µM,RXF 393 [15],97%
same,growth at 100 µM,BT-549,-90%
same,growth at 1 µM,SNB-19,79%
COc1cc(-c2cc(/C=C/C(=O)c3ccc4c(c3)OCO4)[nH]n2)cc(OC)c1OC,growth at 0.1 µM,OVCAR-5,91%
same,growth at 100 µM,HCT-15 [16],-10%
same,growth at 0.01 µM,786-0 [2],96%
same,growth at 100 µM,SK-MEL-28 [3],-16%
same,growth at 0.01 µM,U-251,96%
same,growth at 10 µM,NCI/ADR-RES,23%
same,growth at 1 µM,786-0 [4],96%
same,growth at 1 µM,K562,102%
same,growth at 1 µM,A498,83%
same,growth at 10 µM,MOLT-4 [5],-4%
same,growth at 100 µM,HT-29,-73%
same,growth at 0.01 µM,ACHN,108%
same,growth at 0.01 µM,OVCAR-8,99%
same,growth at 0.1 µM,MDA-MB-435,94%
same,growth at 0.1 µM,786-0 [6],97%
same,TGI,NCI-H23,> 100 µM
same,CC50,NCI-H23,> 100 µM
same,growth at 0.1 µM,UO-31,83%
same,growth at 10 µM,IGROV-1 [7],29%
same,growth at 1 µM,HCT-15 [8],81%
same,growth at 0.1 µM,MDA-MB-231,103%
same,growth at 1 µM,UACC-62,99%
same,growth at 0.01 µM,SK-MEL-28 [9],100%
same,growth at 1 µM,HCC 2998 [10],106%
same,LC50,PC-3,> 100 µM
same,TGI,PC-3,13.7 µM
same,growth at 0.1 µM,HCT-15 [11],92%
same,growth at 0.01 µM,IGROV-1 [12],98%
same,growth at 10 µM,OVCAR-4,27%
same,growth at 0.1 µM,SK-OV-3,103%
same,TGI,MOLT-4 [1],9.15 µM
same,CC50,MOLT-4 [1],> 100 µM
same,growth at 1 µM,RXF 393 [13],80%
same,growth at 100 µM,HCC 2998 [14],-50%
same,growth at 10 µM,TK-10,-31%
same,LC50,RPMI-8226,> 100 µM
same,TGI,RPMI-8226,2.94 µM
same,growth at 0.1 µM,RXF 393 [15],89%
same,growth at 1 µM,SNB-19,84%
